Results reported in ChEMBL document CHEMBL4393685, “Synthesis and evaluation of pyrimidoindole analogs in umbilical cord blood ex vivo expansion” (Eur J Med Chem, 2019).

Experiments:
Format in all cases: functional
[1] = Stimulation of ex vivo expansion of human CD34+ cells assessed as CD34+/CD38- level at 0.01 to 1 uM incubated for 7 days supplemented with 50% fresh medium containing cytokines every other day by flow cytometry relative to control
[2] = Stimulation of ex vivo expansion of human CD34+ cells assessed as CD34+CD38- level incubated for 7 days supplemented with 50% fresh medium containing cytokines every other day by flow cytometry
[3] = Stimulation of ex vivo expansion of human CD34+ cells assessed as CD34+CD38- level at 0.01 to 1 uM incubated for 7 days supplemented with 50% fresh medium containing cytokines every other day by flow cytometry (reference value: 19.10 +/- 0.35%)
[4] = Stimulation of ex vivo expansion of human CD34+ cells assessed as CD34postive phenotypic levels after 7 days by carboxyfluorescein succinimidyl ester dye based assay
[5] = Ex vivo expansion of human CD34+ cells assessed as increase in CD34+ cell level after 5 to 7 days by […]
[6] = Homo sapiens, 168 h, read-out: EC50

With `Cn1nnc(-c2ccc3c(c2)[nH]c2nc(Cc4ccccc4)nc(NC4CCOCC4)c23)n1` the “fold change (FC)” value [1] was 1.62, the EC50 [2, 6] was 972 nM and the Activity [3] was 30.87%.
For `Cn1nnc(-c2ccc3[nH]c4nc(Cc5ccccc5)nc(N[C@H]5CC[C@H](N)CC5)c4c3c2)n1`, the “fold change (FC)” value [1] was 0.98, the EC50 [2] was “Nd(Toxic)” and the Activity [3] was 18.72%.
In the case of `Cn1nnc(-c2ccc3[nH]c4nc(Cc5ccccc5)nc(N5CCC(CO)CC5)c4c3c2)n1`, the “fold change (FC)” value [1] is reported as 1.06, the EC50 [2, 6] is reported as 359 nM and the Activity [3] is reported as 20.29%.
For `Cn1nnc(-c2ccc3[nH]c4nc(Cc5ccccc5)nc(NCCc5c[nH]c6ccccc56)c4c3c2)n1`, the “fold change (FC)” value [1] was 1.14, the EC50 [2, 6] was 27.7 nM and the Activity [3] was 21.72%.
In the case of `CNC(=O)c1ccc(Nc2nc(Cc3ccccc3)nc3[nH]c4ccc(-c5nnn(C)n5)cc4c23)cc1`, the “fold change (FC)” value [1] is reported as 1.14, the EC50 [2] is reported as “Nd(Toxic)” and the Activity [3] is reported as 21.83%.
For `Cn1nnc(-c2ccc3[nH]c4nc(Cc5ccccc5)nc(N[C@H]5CC[C@H](O)CC5)c4c3c2)n1`, the “fold change (FC)” value [1] was 0.94, the EC50 [2] was “Nd(Toxic)” and the Activity [3] was 17.9%.
In the case of `Cn1nnc(-c2ccc3c(c2)[nH]c2nc(Cc4ccccc4)nc(N[C@H]4CC[C@H](O)CC4)c23)n1`, the “fold change (FC)” value [1] is reported as 2.63, the EC50 [2, 6] is reported as 473 nM and the Activity [3] is reported as 50.15%.
With `COc1ccc(CCNc2nc(Cc3ccccc3)nc3[nH]c4ccc(-c5nnn(C)n5)cc4c23)cc1` the “fold change (FC)” value [1] was 1.15, the EC50 [2] was “Nd(Toxic)” and the Activity [3] was 21.96%.
With `CC(O)CNc1nc(Cc2ccccc2)nc2[nH]c3ccc(-c4nnn(C)n4)cc3c12` (stereo not given) the “fold change (FC)” value [1] was 1.63, the EC50 [2, 6] was 167 nM and the Activity [3] was 31.2%.
With `Cn1nnc(-c2ccc3[nH]c4nc(Cc5ccccc5)nc(NCCO)c4c3c2)n1` the “fold change (FC)” value [1] was 0.99, the EC50 [2] was “Nd(Toxic)” and the Activity [3] was 18.99%.
With `Cn1nnc(-c2ccc3[nH]c4nc(Cc5ccccc5)nc(NCCc5ccc(O)cc5)c4c3c2)n1` the “fold change (FC)” value [1] was 1.08, the EC50 [2] was “Nd(Toxic)” and the Activity [3] was 20.65%.
For `Cn1nnc(-c2ccc3[nH]c4nc(Cc5ccccc5)nc(NCCNC(=O)c5ccc6ccccc6n5)c4c3c2)n1`, the “fold change (FC)” value [1] was 1.09, the EC50 [2] was “Nd(Toxic)” and the Activity [3] was 20.89%.
For `Cn1nnc(-c2ccc3[nH]c4nc(Cc5ccccc5)nc(N5CCNCC5)c4c3c2)n1`, the “fold change (FC)” value [1] was 1.29, the EC50 [2, 6] was 157 nM and the Activity [3] was 24.69%.
With `Cn1nnc(-c2ccc3[nH]c4nc(Cc5ccccc5)nc(NCc5ccccc5)c4c3c2)n1` the “fold change (FC)” value [1] was 1.25, the EC50 [2] was “Nd(Toxic)” and the Activity [3] was 23.92%.
With `COc1ccc(CCNc2nc(Cc3ccccc3)nc3[nH]c4ccc(-c5nnn(C)n5)cc4c23)cc1OC` the “fold change (FC)” value [1] was 1.24, the EC50 [2, 6] was 65.2 nM and the Activity [3] was 23.63%.
For `Cn1nnc(-c2ccc3[nH]c4nc(Cc5ccccc5)nc(Nc5ccccc5)c4c3c2)n1`, the “fold change (FC)” value [1] was 0.94, the EC50 [2] was “Nd(Toxic)” and the Activity [3] was 18.02%.
With `COc1ccc(CCNc2nc(Cc3ccccc3)nc3[nH]c4cc(-c5nnn(C)n5)ccc4c23)cc1` the “fold change (FC)” value [1] was 0.74, the EC50 [2] was “Nd(Toxic)” and the Activity [3] was 14.15%.
For `Cn1nnc(-c2ccc3[nH]c4nc(Cc5ccccc5)nc(NCCN(Cc5ccccn5)Cc5ccccn5)c4c3c2)n1`, the “fold change (FC)” value [1] was 1.27, the EC50 [2, 6] was 26.2 nM and the Activity [3] was 24.23%.
For `Cn1nnc(-c2ccc3[nH]c4nc(Cc5ccccc5)nc(N5CCOCC5)c4c3c2)n1`, the “fold change (FC)” value [1] was 0.91, the EC50 [2, 6] was 177 nM and the Activity [3] was 17.32%.
For `Cn1nnc(-c2ccc3[nH]c4nc(Cc5ccccc5)nc(Nc5ccc(N)cc5)c4c3c2)n1`, the “fold change (FC)” value [1] was 1.15, the EC50 [2] was “Nd(Toxic)” and the Activity [3] was 22.01%.
For `Cn1nnc(-c2ccc3c(c2)[nH]c2nc(Cc4ccccc4)nc(NCCc4c[nH]c5ccccc45)c23)n1`, the “fold change (FC)” value [1] was 1.03, the EC50 [2] was “Nd(Toxic)” and the Activity [3] was 19.73%.
For `Cn1nnc(-c2ccc3[nH]c4nc(Cc5ccccc5)nc(Nc5cccc(Br)c5)c4c3c2)n1`, the “fold change (FC)” value [1] was 1.19, the EC50 [2] was “Nd(Toxic)” and the Activity [3] was 22.63%.
In the case of `Cc1cc(Cl)ccc1Nc1nc(Cc2ccccc2)nc2[nH]c3cc(-c4nnn(C)n4)ccc3c12`, the “fold change (FC)” value [1] is reported as 0.8, the EC50 [2] is reported as “Nd(Toxic)” and the Activity [3] is reported as 15.37%.
With `Cn1nnc(-c2ccc3[nH]c4nc(Cc5ccccc5)nc(N5CCCC(CO)C5)c4c3c2)n1` (stereo not given) the “fold change (FC)” value [1] was 1.16, the EC50 [2, 6] was 59.2 nM and the Activity [3] was 22.2%.
For `COc1ccc(Nc2nc(Cc3ccccc3)nc3[nH]c4ccc(-c5nnn(C)n5)cc4c23)cc1`, the “fold change (FC)” value [1] was 1.01, the EC50 [2] was “Nd(Toxic)” and the Activity [3] was 19.34%.
For `Cn1nnc(-c2ccc3c(c2)[nH]c2nc(Cc4ccccc4)nc(Nc4ccc(F)c(Cl)c4)c23)n1`, the “fold change (FC)” value [1] was 0.83, the EC50 [2] was “Nd(Toxic)” and the Activity [3] was 15.79%.
For `Cn1nnc(-c2ccc3c(c2)[nH]c2nc(Cc4ccccc4)nc(NCCc4ccc(O)cc4)c23)n1`, the “fold change (FC)” value [1] was 0.95, the EC50 [2] was “Nd(Toxic)” and the Activity [3] was 18.2%.
In the case of `Cn1nnc(-c2ccc3[nH]c4nc(Cc5ccccc5)nc(NCCNC(=O)OC(C)(C)C)c4c3c2)n1`, the “fold change (FC)” value [1] is reported as 0.84, the EC50 [2] is reported as “Nd(Toxic)” and the Activity [3] is reported as 16.11%.
With `Cn1nnc(-c2ccc3[nH]c4nc(Cc5ccccc5)nc(Nc5ccc(F)c(Cl)c5)c4c3c2)n1` the “fold change (FC)” value [1] was 1.08, the EC50 [2] was “Nd(Toxic)” and the Activity [3] was 20.65%.
With `C#Cc1cccc(Nc2nc(Cc3ccccc3)nc3[nH]c4cc(-c5nnn(C)n5)ccc4c23)c1` the “fold change (FC)” value [1] was 0.89, the EC50 [2] was “Nd(Toxic)” and the Activity [3] was 16.98%.
In the case of `CN(C)c1nc(Cc2ccccc2)nc2[nH]c3cc(-c4nnn(C)n4)ccc3c12`, the “fold change (FC)” value [1] is reported as 0.83, the EC50 [2] is reported as “Nd(Toxic)” and the Activity [3] is reported as 15.91%.
For `C#Cc1cccc(Nc2nc(Cc3ccccc3)nc3[nH]c4ccc(-c5nnn(C)n5)cc4c23)c1`, the “fold change (FC)” value [1] was 1.36, the EC50 [2, 6] was 56.2 nM and the Activity [3] was 25.99%.
For `COc1ccc(CCNc2nc(Cc3ccccc3)nc3[nH]c4cc(-c5nnn(C)n5)ccc4c23)cc1OC`, the “fold change (FC)” value [1] was 1.94, the EC50 [2] was “Nd(Toxic)” and the Activity [3] was 37.07%.
In the case of `CC(C)n1cnc2c(NCCc3ccc(O)cc3)nc(-c3csc4ccccc34)nc21`, the Activity [4] is reported as 61% and the EC50 [5] is reported as 120 nM.
With `COc1cc2c(cc1OC)CN(CCNc1nc(Cc3ccccc3)nc3[nH]c4ccc(-c5nnn(C)n5)cc4c13)CC2` the “fold change (FC)” value [1] was 1.27, the EC50 [2, 6] was 30 nM and the Activity [3] was 21.93%.
In the case of `Cc1ccc(Sc2nc(Cc3ccccc3)nc3[nH]c4ccc(-c5nnn(C)n5)cc4c23)cc1`, the “fold change (FC)” value [1] is reported as 1.34, the EC50 [2] is reported as “Nd(Toxic)” and the Activity [3] is reported as 25.53%.
For `Cc1cc(Cl)ccc1Nc1nc(Cc2ccccc2)nc2[nH]c3ccc(-c4nnn(C)n4)cc3c12`, the “fold change (FC)” value [1] was 1.59, the EC50 [2, 6] was 19.2 nM and the Activity [3] was 30.36%.
